In the NIST ThermoML archive (doi:10.1016/j.jct.2011.01.008):

Tests used:
[1] = xn = mol fraction of the nth substance listed; conditions: 96 kPa, Liquid, Vibrating tube method
[2] = refractive index (Na D-line) (dimensionless); xn = mol fraction of the nth substance listed; conditions: 298.15 K, 96 kPa, Liquid, Standard Abbe refractometry

CCC=O [propanal] + CCOS(=O)(=O)[O-].CCn1cc[n+](C)c1
[1]
Conditions	mass density [kg/m3]
288.14 K, x1 = 0.1702	1215.95
288.14 K, x1 = 0.4184	1170.49
288.14 K, x1 = 1	807.26
288.15 K, x1 = 0.2146	1209
288.15 K, x1 = 0.3671	1182.78
288.15 K, x1 = 0.5246	1139.5
288.15 K, x1 = 0.616	1108.79
288.15 K, x1 = 0.7074	1069.7
288.15 K, x1 = 0.8104	1012.95
288.15 K, x1 = 0.9022	936.46
288.15 K, x1 = 0.9521	876.3
288.16 K, x1 = 0.077	1227.88
293.15 K, x1 = 0.077	1224.4
293.15 K, x1 = 0.1702	1212.43
293.15 K, x1 = 0.5246	1136.2
293.15 K, x1 = 0.616	1105.04
293.15 K, x1 = 0.7074	1066.43
293.15 K, x1 = 1	801.06
293.16 K, x1 = 0.2146	1205.39
293.16 K, x1 = 0.3671	1178.94
293.16 K, x1 = 0.4184	1166.66
293.16 K, x1 = 0.8104	1008.26
293.16 K, x1 = 0.9022	931.16
293.16 K, x1 = 0.9521	870.71
298.15 K, x1 = 0.1702	1208.92
298.15 K, x1 = 0.5246	1132.3
298.15 K, x1 = 0.616	1101.02
298.15 K, x1 = 1	794.85
298.16 K, x1 = 0.077	1220.94
298.16 K, x1 = 0.2146	1201.81
298.16 K, x1 = 0.3671	1175.21
298.16 K, x1 = 0.4184	1162.88
298.16 K, x1 = 0.7074	1062.18
298.16 K, x1 = 0.8104	1003.73
298.16 K, x1 = 0.9022	925.91
298.16 K, x1 = 0.9521	865.19
303.15 K, x1 = 0.077	1217.48
303.15 K, x1 = 0.5246	1128.46
303.15 K, x1 = 0.7074	1058.06
303.15 K, x1 = 1	788.72
303.16 K, x1 = 0.1702	1205.39
303.16 K, x1 = 0.2146	1198.24
303.16 K, x1 = 0.3671	1171.5
303.16 K, x1 = 0.4184	1159.08
303.16 K, x1 = 0.616	1097.06
303.16 K, x1 = 0.8104	999.38
303.16 K, x1 = 0.9022	920.77
303.16 K, x1 = 0.9521	859.8
308.15 K, x1 = 0.077	1214.04
308.15 K, x1 = 0.2146	1194.69
308.15 K, x1 = 0.3671	1167.83
308.15 K, x1 = 0.4184	1155.38
308.15 K, x1 = 0.8104	995.49
308.15 K, x1 = 0.9022	915.5
308.15 K, x1 = 0.9521	854.41
308.16 K, x1 = 0.1702	1201.91
308.16 K, x1 = 0.5246	1124.75
308.16 K, x1 = 0.616	1093.39
308.16 K, x1 = 0.7074	1054.45
308.16 K, x1 = 1	782.55
313.14 K, x1 = 0.1702	1198.61
313.14 K, x1 = 0.616	1089.32
313.14 K, x1 = 0.7074	1050.7
313.15 K, x1 = 0.077	1210.68
313.15 K, x1 = 0.3671	1164.21
313.15 K, x1 = 0.4184	1151.8
313.15 K, x1 = 0.5246	1121.2
313.15 K, x1 = 0.8104	990.4
313.15 K, x1 = 0.9022	910.11
313.15 K, x1 = 0.9521	848.67
313.15 K, x1 = 1	776.53
313.16 K, x1 = 0.2146	1191.34

[2]
Conditions	refractive index
x1 = 0.077	1.4789
x1 = 0.1702	1.4768
x1 = 0.2146	1.473
x1 = 0.3671	1.4641
x1 = 0.4184	1.4627
x1 = 0.5246	1.4532
x1 = 0.616	1.4467
x1 = 0.7074	1.4369
x1 = 0.8104	1.426
x1 = 0.9022	1.41
x1 = 0.9521	1.3854
x1 = 1	1.3648
